Patent US8481539B2, “Alkynylaryl compounds and salts thereof, pharmaceutical compositions comprising same, methods of preparing same and uses of same” (Bayer Intellectual Property GmbH, priority 2007, dated 2013)

Assays:
Type in all cases: biochemical
[1] = biological target: T1, Tie-2 (Homo sapiens, UniProt Q02763); assay: Tie-2-Kinase HTRF-Assay (assay 2); settings: pIC50 class; 10 μM ATP; read-out: Enzymatic Tie 2 activity (assay 2)
T1 construct: fusion protein of GST and the intracellular domains of Tie-2; GST; made in house; host or cells: insect cells (Hi-5)
Source text: Tie2-inhibitory activity of compounds of the present invention was quantified employing two Tie2 HTRF assay as described in the following paragraphs.
A recombinant fusion protein of GST and the intracellular domains of Tie-2, expressed in insect cells (Hi-5) and purified by Glutathion-Sepharose affinity chromatography was used as kinase. Alternatively, commercially available GST-Tie2-fusion protein (Upstate Biotechnology, Dundee, Scotland) can be used As substrate for the kinase reaction the biotinylated peptide biotin-Ahx-EPKDDAYPLYSDFG (C-terminus in amid form) was used which can be purchased e.g. from the company Biosynthan GmbH (Berlin-Buch, Germany). Detection of phosphorylated product is achieved specifically by a trimeric detection complex consisting of the phosphorylated substrate, streptavidin-XLent (SA-XLent) which binds to biotin, and Europium Cryptate-labeled anti-phosphotyrosine antibody PT66 which binds to phosphorylated tyrosine.
Tie-2 (3.5 ng/measurement point) was incubated for 60 min at 22° C. in the presence of 10 μM adenosine-tri-phosphate (ATP) and 1 μM substrate peptide (biotin-Ahx-EPKDDAYPLYSDFG-NH2) with different concentrations of test compounds (0 μM and concentrations in the range 0.001-20 μM) in 5 μl assay buffer [50 mM Hepes/NaOH pH 7, 10 mM MgCl2, 0.5 mM MnCl2, 1.0 mM dithiothreitol, 0.01% NP40, protease inhibitor mixture (“Complete w/o EDTA” from Roche, 1 tablet per 2.5 ml), 1% (v/v) dimethylsulfoxide]. The reaction was stopped by the addition of 5 μl of an aqueous buffer (25 mM Hepes/NaOH pH 7.5, 0.28% (w/v) bovine serum albumin) containing EDTA (90 mM) and the HTRF (Homogeneous Time Resolved Fluorescence) detection reagents streptavidine-XLent (0.2 μM, from Cis Biointemational, Marcoule, France) and PT66-Eu-Chelate (0.3 ng/μl; a europium-chelate labelled anti-phospho-tyrosine antibody from Perkin Elmer).
(§1) The resulting mixture was incubated 1 h at 22° C. to allow the binding of the biotinylated phosphorylated peptide to the streptavidine-XLent and the PT66-Eu-Chelate. Subsequently the amount of phosphorylated substrate peptide was evaluated by measurement of the resonance energy transfer from the PT66-Eu-Chelate to the streptavidine-XLent. Therefore, the fluorescence emissions at 620 nm and 665 nm after excitation at 350 nm was measured in a HTRF reader, e.g. a Rubystar (BMG Labtechnologies, Offenburg, Germany) or a Viewlux (Perkin-Elmer). The ratio of the emissions at 665 nm and at […] was taken as the measure for the amount of phosphorylated substrate peptide. The data were normalised (enzyme reaction without inhibitor=0 (% inhibition, all other assay components but no enzyme=100% inhibition) and IC50 values were calculated by a 4 parameter fit using an inhouse software.

[2] = biological target: T2, human VEGFR2 (Homo sapiens, UniProt P35968); assay: VEGFR2 HTRF Assay (assay 5); settings: pIC50 class; 10 μM ATP; read-out: Enzymatic VEGFR2 activity (assay 5)
T2 construct: GST-tagged recombinant kinase domain of the human VEGFR2; GST; host or cells: SF-9 cells
Source text: Assay 5: VEGFR2 HTRF Assay
VEGFR2 inhibitory activity of compounds of the present invention was quantified employing the VEGFR2 HTRF assay as described in the following paragraphs.
GST-tagged recombinant kinase domain of the human VEGFR2 expressed in SF-9 cells was used as kinase. As substrate for the kinase reaction the biotinylated peptide biotin-Ahx-DFGLARDMYDKEYYSVG (C-terminus in acid form) was used which can be purchased e.g. form the company Biosynthan GmbH (Berlin-Buch, Germany). VEGFR2 was incubated for 45 min at 22° C. in the presence of different concentrations of test compounds in 5 μl assay buffer [50 mM Hepes/NaOH pH 7.0, 25 mM MgCl2, 5 mM MnCl2, 1.0 mM dithiothreitol, 0.1 mM sodium ortho-vanadate, 10 μM adenosine-tri-phosphate (ATP), 0.5 μM substrate, 0.001% (v/v) Nonidet-P40 (Sigma), 1% (v/v) dimethylsulfoxide]. The concentration of VEGFR2 was adjusted depending of the activity of the enzyme lot and was chosen appropriate to have the assay in the linear range. The reaction was stopped by the addition of 5 μl of a solution of HTRF detection reagents (0.1 μM streptavidine-XLent and 2 nM PT66-Eu-Chelate, an europium-chelate labelled anti-phospho-tyrosine antibody from Perkin Elmer) in an aqueous EDTA-solution (125 mM EDTA, 0.2% (w/v) bovine serum albumin in 50 mM HEPES/NaOH pH 7.0).
as §1, with “incubated for” for “incubated”, “substrate” for “substrate peptide”, “substrate.” for “substrate peptide.”, “normalized” for “normalised”, “inhibitor=0%” for “inhibitor=0 (%”

[3] = biological target: T3, human insuline receptor (Ins-R) (Homo sapiens, UniProt P06213); assay: Insulin Receptor HTRF Assay (assay 4); settings: pIC50 class; 10 μM ATP; read-out: Enzymatic InsR activity (assay 4)
T3 construct: GST-tagged recombinant kinase domain of the human insuline receptor; GST; purchased ProQinase, Freiburg, Germany; host or cells: SF-9 cells
Procedure: Assay 4: Insulin Receptor HTRF Assay
Inhibitory activity of compounds against the kinase activity of the insulin receptor was quantified employing the Ins-R HTRF assay as described in the following paragraphs.
GST-tagged recombinant kinase domain of the human insuline receptor (Ins-R, purchase from ProQinase, Freiburg, Germany) expressed in SF-9 cells was used as kinase. As substrate for the kinase reaction biotinylated poly-(Glu, Tyr) (Cis biointernational, France) was used.
Ins-R was incubated for 20 min at 22° C. in the presence of different concentrations of test compounds in 5 μl assay buffer [50 mM Hepes/NaOH pH 7, 15 mM MnCl2, 1 mM dithiothreitol, 0.1 μM sodium ortho-vanadate, 0.015% (v/v) PEG20000, 10 μM adenosine-tri-phosphate (ATP), 0.3 μg/ml substrate, 1% (v/v) dimethylsulfoxide]. The concentration of Ins-R was adjusted depending of the activity of the enzyme lot and was chosen appropriate to have the assay in the linear range, typical concentrations were in the range of 10 pg/μl. The reaction was stopped by the addition of 5 μl of a solution of HTRF detection reagents (0.1 μM streptavidine-XLent and 1 nM PT66-Eu-Chelate, an europium-chelate labelled anti-phospho-tyrosine antibody from Perkin Elmer) in an aqueous EDTA-solution (80 mM EDTA, 0.2% (w/v) bovine serum albumin in 50 mM HEPES/NaOH pH 7.0).
as §1, with “substrate” for “substrate peptide”, “substrate.” for “substrate peptide.”, “inhibitor=0%” for “inhibitor=0 (%”

T1 sequence (Q02763 770-1124 limits assumed, species assumed): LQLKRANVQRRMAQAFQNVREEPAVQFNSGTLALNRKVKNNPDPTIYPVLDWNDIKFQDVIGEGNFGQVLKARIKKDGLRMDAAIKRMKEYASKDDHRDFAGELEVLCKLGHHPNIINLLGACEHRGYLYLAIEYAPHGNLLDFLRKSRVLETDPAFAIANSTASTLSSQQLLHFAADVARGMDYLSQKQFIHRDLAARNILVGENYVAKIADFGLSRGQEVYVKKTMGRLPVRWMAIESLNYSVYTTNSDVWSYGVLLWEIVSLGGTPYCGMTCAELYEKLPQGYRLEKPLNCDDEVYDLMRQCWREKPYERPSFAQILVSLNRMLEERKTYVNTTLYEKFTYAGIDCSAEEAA
T2 sequence (P35968 834-1162 limits assumed): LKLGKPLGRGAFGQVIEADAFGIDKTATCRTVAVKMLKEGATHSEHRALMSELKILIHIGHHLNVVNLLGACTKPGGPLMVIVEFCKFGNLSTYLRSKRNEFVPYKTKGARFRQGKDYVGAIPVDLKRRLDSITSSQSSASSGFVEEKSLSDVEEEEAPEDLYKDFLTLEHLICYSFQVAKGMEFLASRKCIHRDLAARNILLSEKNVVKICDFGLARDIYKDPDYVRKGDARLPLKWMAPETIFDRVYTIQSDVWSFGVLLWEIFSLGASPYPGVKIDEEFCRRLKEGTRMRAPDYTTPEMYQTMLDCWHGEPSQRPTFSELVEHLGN
T3 sequence (P06213 1023-1298 limits assumed): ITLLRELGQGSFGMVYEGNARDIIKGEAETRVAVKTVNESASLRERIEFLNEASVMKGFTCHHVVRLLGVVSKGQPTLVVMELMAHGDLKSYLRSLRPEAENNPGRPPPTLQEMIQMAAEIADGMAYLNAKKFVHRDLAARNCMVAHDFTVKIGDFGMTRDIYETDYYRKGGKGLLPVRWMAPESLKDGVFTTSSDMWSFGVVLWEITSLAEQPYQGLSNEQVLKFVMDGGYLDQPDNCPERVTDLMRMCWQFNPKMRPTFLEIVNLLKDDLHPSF

IC50 [1]: < 1 µM
IC50 [2]: < 1 µM
IC50 [3]: ≥ 10 µM
Structure (SMILES): Cn1ncc2c(C#Cc3cc(NC(=O)Nc4cccc(C(F)(F)F)c4)ccc3F)cncc21 [Example 2.6, 1-[4-Fluoro-3-(1-methyl-1H-pyrazolo[3,4-c]pyridin-4-ylethynyl)-phenyl]-3-(3-trifluoromethyl-phenyl)-urea]
